Source: PubChem BioAssay (NCI)
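Tested at 5 concentrations; 48 h exposure; 96-well plates; endpoints linearly interpolated, else capped at highest concentration. At the TGI there is no net growth.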

How the values were obtained:
Assay in all cases: NCI tumour cell line growth inhibition, 48 h
XF 498 CNS = tested on: XF 498 CNS
SK-MEL-28 melanoma = tested on: SK-MEL-28 melanoma
COLO 205 colon = tested on: COLO 205 colon
SNB-78 CNS = tested on: SNB-78 CNS
CCRF-CEM leukemia = tested on: CCRF-CEM leukemia
HL-60(TB) leukemia = tested on: HL-60(TB) leukemia
NCI-H23 lung = tested on: NCI-H23 lung
RPMI-8226 leukemia = tested on: RPMI-8226 leukemia
DMS 273 small cell lung = tested on: DMS 273 small cell lung
OVCAR-4 ovarian = tested on: OVCAR-4 ovarian
SNB-75 CNS = tested on: SNB-75 CNS
KM20L2 colon = tested on: KM20L2 colon
A549 NSCLC = tested on: A549 NSCLC
OVCAR-5 ovarian = tested on: OVCAR-5 ovarian
SW-620 colon = tested on: SW-620 colon
NCI-H460 lung = tested on: NCI-H460 lung
HCT-15 colon = tested on: HCT-15 colon
HOP-92 NSCLC = tested on: HOP-92 NSCLC
M14 melanoma = tested on: M14 melanoma
UACC-257 melanoma = tested on: UACC-257 melanoma
SK-MEL-5 melanoma = tested on: SK-MEL-5 melanoma
HOP-18 NSCLC = tested on: HOP-18 NSCLC
U251 CNS = tested on: U251 CNS
ACHN renal = tested on: ACHN renal
MOLT-4 leukemia = tested on: MOLT-4 leukemia
IGROV1 ovarian = tested on: IGROV1 ovarian
CAKI-1 renal = tested on: CAKI-1 renal
SF-295 CNS = tested on: SF-295 CNS
NCI-H226 lung = tested on: NCI-H226 lung
HCC-2998 colon = tested on: HCC-2998 colon
SN12C renal = tested on: SN12C renal
UO-31 renal = tested on: UO-31 renal
LOX IMVI melanoma = tested on: LOX IMVI melanoma
M19-MEL melanoma = tested on: M19-MEL melanoma
A498 renal = tested on: A498 renal
SF-268 CNS = tested on: SF-268 CNS
OVCAR-3 ovarian = tested on: OVCAR-3 ovarian
RXF-631 renal = tested on: RXF-631 renal
SK-MEL-2 melanoma = tested on: SK-MEL-2 melanoma
KM12 colon = tested on: KM12 colon
DMS 114 small cell lung = tested on: DMS 114 small cell lung
SK-OV-3 ovarian = tested on: SK-OV-3 ovarian
UACC-62 melanoma = tested on: UACC-62 melanoma
K-562 leukemia = tested on: K-562 leukemia
SF-539 CNS = tested on: SF-539 CNS
LXFL 529 NSCLC = tested on: LXFL 529 NSCLC
RXF 393 renal = tested on: RXF 393 renal
MALME-3M melanoma = tested on: MALME-3M melanoma
HOP-62 NSCLC = tested on: HOP-62 NSCLC
HT29 colon = tested on: HT29 colon
DLD-1 colon = tested on: DLD-1 colon
786-0 renal = tested on: 786-0 renal
SNB-19 CNS = tested on: SNB-19 CNS
HCT-116 colon = tested on: HCT-116 colon
EKVX NSCLC = tested on: EKVX NSCLC
OVCAR-8 ovarian = tested on: OVCAR-8 ovarian
NCI-H522 lung = tested on: NCI-H522 lung
TK-10 renal = tested on: TK-10 renal

With `O=C1[C@H]2ON(c3ccccc3)C(c3ccccc3F)[C@H]2C(=O)N1c1ccc(Cc2ccc(N3C(=O)[C@@H]4ON(c5ccccc5)C(c5ccccc5F)[C@@H]4C3=O)cc2)cc1` (some centres undefined) the TGI (XF 498 CNS) was over 100 µM, the TGI (SK-MEL-28 melanoma) was over 100 µM and the TGI (COLO 205 colon) was over 100 µM. It also gave a TGI (SNB-78 CNS) of over 100 µM, a TGI (CCRF-CEM leukemia) of over 100 µM and a TGI (HL-60(TB) leukemia) of over 100 µM. For the same compound, the TGI (NCI-H23 lung) was over 100 µM, the TGI (RPMI-8226 leukemia) was over 100 µM and the TGI (DMS 273 small cell lung) was over 100 µM. For the same compound, the TGI (OVCAR-4 ovarian) was over 100 µM, the TGI (SNB-75 CNS) was over 100 µM and the TGI (KM20L2 colon) was over 100 µM. For the same compound, the TGI (A549 NSCLC) was over 100 µM, the TGI (OVCAR-5 ovarian) was over 100 µM and the TGI (SW-620 colon) was over 100 µM. It also gave a TGI (NCI-H460 lung) of over 100 µM, a TGI (HCT-15 colon) of over 100 µM and a TGI (HOP-92 NSCLC) of over 100 µM. It also gave a TGI (M14 melanoma) of over 100 µM, a TGI (UACC-257 melanoma) of over 100 µM and a TGI (SK-MEL-5 melanoma) of over 100 µM. The TGI (HOP-18 NSCLC) was over 100 µM, the TGI (U251 CNS) was over 100 µM and the TGI (ACHN renal) was over 100 µM. It also gave a TGI (MOLT-4 leukemia) of over 100 µM, a TGI (IGROV1 ovarian) of over 100 µM and a TGI (CAKI-1 renal) of over 100 µM. The TGI (SF-295 CNS) was over 100 µM, the TGI (NCI-H226 lung) was over 100 µM and the TGI (HCC-2998 colon) was over 100 µM. It also gave a TGI (SN12C renal) of over 100 µM, a TGI (UO-31 renal) of over 100 µM and a TGI (LOX IMVI melanoma) of over 100 µM. The TGI (M19-MEL melanoma) was over 100 µM, the TGI (A498 renal) was over 100 µM and the TGI (SF-268 CNS) was over 100 µM. For the same compound, the TGI (OVCAR-3 ovarian) was over 100 µM, the TGI (RXF-631 renal) was over 100 µM and the TGI (SK-MEL-2 melanoma) was over 100 µM. For the same compound, the TGI (KM12 colon) was over 100 µM, the TGI (DMS 114 small cell lung) was over 100 µM and the TGI (SK-OV-3 ovarian) was over 100 µM. It also gave a TGI (UACC-62 melanoma) of over 100 µM, a TGI (K-562 leukemia) of over 100 µM and a TGI (SF-539 CNS) of over 100 µM. The TGI (LXFL 529 NSCLC) was over 100 µM, the TGI (RXF 393 renal) was over 100 µM and the TGI (MALME-3M melanoma) was over 100 µM. It also gave a TGI (HOP-62 NSCLC) of over 100 µM, a TGI (HT29 colon) of over 100 µM and a TGI (DLD-1 colon) of over 100 µM. For the same compound, the TGI (786-0 renal) was over 100 µM.
`Cc1ccc(-c2cc(=O)c3cc(C)c(C)c(C(=O)O)c3o2)cc1` gave a TGI (XF 498 CNS) of over 100 µM, a TGI (SK-MEL-28 melanoma) of over 100 µM and a TGI (COLO 205 colon) of over 100 µM. For the same compound, the TGI (SNB-78 CNS) was over 100 µM, the TGI (CCRF-CEM leukemia) was over 100 µM and the TGI (NCI-H23 lung) was over 100 µM. It also gave a TGI (RPMI-8226 leukemia) of over 100 µM, a TGI (SNB-19 CNS) of over 100 µM and a TGI (DMS 273 small cell lung) of over 100 µM. The TGI (HCT-116 colon) was over 100 µM, the TGI (OVCAR-4 ovarian) was over 100 µM and the TGI (SNB-75 CNS) was over 100 µM. It also gave a TGI (KM20L2 colon) of over 100 µM, a TGI (A549 NSCLC) of over 100 µM and a TGI (OVCAR-5 ovarian) of over 100 µM. The TGI (SW-620 colon) was over 100 µM, the TGI (NCI-H460 lung) was over 100 µM and the TGI (HCT-15 colon) was over 100 µM. The TGI (HOP-92 NSCLC) was over 100 µM, the TGI (M14 melanoma) was over 100 µM and the TGI (UACC-257 melanoma) was over 100 µM. For the same compound, the TGI (SK-MEL-5 melanoma) was over 100 µM, the TGI (U251 CNS) was over 100 µM and the TGI (ACHN renal) was over 100 µM. It also gave a TGI (EKVX NSCLC) of over 100 µM, a TGI (MOLT-4 leukemia) of over 100 µM and a TGI (IGROV1 ovarian) of over 100 µM. It also gave a TGI (SF-295 CNS) of over 100 µM, a TGI (HCC-2998 colon) of over 100 µM and a TGI (SN12C renal) of over 100 µM. The TGI (UO-31 renal) was over 100 µM, the TGI (LOX IMVI melanoma) was over 100 µM and the TGI (M19-MEL melanoma) was over 100 µM. The TGI (A498 renal) was over 100 µM, the TGI (OVCAR-8 ovarian) was over 100 µM and the TGI (NCI-H522 lung) was 54.5 µM. For the same compound, the TGI (SF-268 CNS) was over 100 µM, the TGI (OVCAR-3 ovarian) was over 100 µM and the TGI (RXF-631 renal) was over 100 µM. The TGI (SK-MEL-2 melanoma) was over 100 µM, the TGI (KM12 colon) was over 100 µM and the TGI (DMS 114 small cell lung) was over 100 µM. The TGI (SK-OV-3 ovarian) was over 100 µM, the TGI (UACC-62 melanoma) was over 100 µM and the TGI (SF-539 CNS) was 75 µM. It also gave a TGI (LXFL 529 NSCLC) of over 100 µM, a TGI (MALME-3M melanoma) of over 100 µM and a TGI (HOP-62 NSCLC) of over 100 µM. For the same compound, the TGI (HT29 colon) was over 100 µM, the TGI (DLD-1 colon) was over 100 µM and the TGI (TK-10 renal) was over 100 µM. It also gave a TGI (786-0 renal) of over 100 µM.
